Results reported in patent US20100120778A1, “QUINOXALINE-BASED LXR MODULATORS” (Wyeth, priority 2008, published 2010).

Target: T1, human LXRβ (Homo sapiens, UniProt P55055)
T1 construct: biotin (biotinylated); made in house; host or cells: E. coli
T1 sequence (P55055 1-460): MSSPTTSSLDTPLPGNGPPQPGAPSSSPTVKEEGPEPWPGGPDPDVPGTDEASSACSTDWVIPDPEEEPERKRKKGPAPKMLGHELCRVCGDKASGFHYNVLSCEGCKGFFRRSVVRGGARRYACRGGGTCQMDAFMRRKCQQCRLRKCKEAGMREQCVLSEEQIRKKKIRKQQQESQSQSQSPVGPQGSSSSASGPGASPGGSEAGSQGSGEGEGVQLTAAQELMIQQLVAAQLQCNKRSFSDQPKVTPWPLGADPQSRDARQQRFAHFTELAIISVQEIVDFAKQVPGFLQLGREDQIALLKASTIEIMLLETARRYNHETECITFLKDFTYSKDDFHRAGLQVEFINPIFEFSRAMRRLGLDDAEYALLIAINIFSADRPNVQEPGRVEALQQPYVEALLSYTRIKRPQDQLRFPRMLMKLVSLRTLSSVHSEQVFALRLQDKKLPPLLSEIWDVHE
Experiment: Ligand-binding test procedure for human LXRβ (3H T0901317 tracer, flash plates)
Conditions: biotinylated hLXRβ, tracer 3H T0901317, +4° C. over night
Method: I. Ligand-Binding Test Procedure for Human LXRβ.
Receptor source: E. coli extracted from cells expressing biotinylated hLXRβ. Extract was made in a similar buffer as above, but with 50 mM TRIS.
Washed streptavidin and coated flash plates with wash buffer. Diluted receptor extract to give Bmax˜4000 cpm and add to the wells. Wrapped the plates in aluminum foil and stored them at +4° C. overnight.
Made a dilution series in DMSO of the test ligands. Made a 5 nM solution of the radioactive tracer in buffer. Mixed 250 μl diluted tracer with 5 μl of the test ligand from each concentration of the dilution series. Washed the receptor-coated flash plates. Added 200 μl per well of the ligand/radiolabel mixture to the receptor-coated flash plates. Wrapped the plates in aluminum foil and incubate at +4° C. over night.
Aspirated wells, and washed the flashed plates. Sealed the plate.
Measured the remaining radioactivity in the plate.

SMILES: CS(=O)(=O)c1ccc(-c2ccc(-c3cnc4cccc(C(F)(F)F)c4n3)cc2)cc1 [Example 23, 2-[4′-(methylsulfonyl)biphenyl-4-yl]-8-(trifluoromethyl)quinoxaline]
- IC50: > 1000 nM

SMILES: Cc1nc2c(C(F)(F)F)cccc2nc1-c1ccc(-c2ccc(CCC(=O)O)cc2)cc1 [Example 55, 3-{4′-[3-methyl-5-(trifluoromethyl)quinoxalin-2-yl]biphenyl-4-yl}propanoic acid]
- IC50: > 1000 nM

SMILES: Cc1nc2c(C(F)(F)F)cccc2nc1-c1cc(Oc2cccc(S(=O)(=O)CCCN)c2)ccc1Cl [Example 45, 3-[(3-{4-chloro-3-[3-methyl-5-(trifluoromethyl)quinoxalin-2-yl]phenoxy}phenyl)sulfonyl]-propan-1-amine]
- IC50: 63 nM

SMILES: CCc1nc2cccc(C(F)(F)F)c2nc1-c1ccc(-c2cccc(S(C)(=O)=O)c2)cc1 [Example 34, 2-ethyl-3-[3′-(methylsulfonyl)biphenyl-4-yl]-5-(trifluoromethyl)quinoxaline]
- IC50: 353 nM

SMILES: CS(=O)(=O)Nc1cccc(-c2ccc(Oc3cnc4c(Cl)cccc4n3)cc2)c1 [Example 87, N-{4′-[(5-chloroquinoxalin-2-yl)oxy]biphenyl-3-yl}methanesulfonamide]
- IC50: > 1000 nM

SMILES: CS(=O)(=O)c1cccc(Oc2ccc(-c3nc4ccccc4nc3C(F)(F)F)cc2)c1 [Example 27, 2-{4-[3-(methylsulfonyl)phenoxy]phenyl}-3-(trifluoromethyl)quinoxaline]
- IC50: > 1000 nM

SMILES: CS(=O)(=O)c1cccc(-c2ccc(-c3nc4ccccc4nc3C(F)(F)F)cc2)c1 [Example 26, 2-[3′-(methylsulfonyl)biphenyl-4-yl]-3-(trifluoromethyl)quinoxaline]
- IC50: > 1000 nM

SMILES: CNS(=O)(=O)c1cccc(-c2ccc(Oc3cnc4c(Cl)cccc4n3)cc2)c1 [Example 86, 4′-[(5-Chloroquinoxalin-2-yl)oxy]-N-methylbiphenyl-3-sulfonamide]
- IC50: > 1000 nM

SMILES: Cc1nc2c(Cl)ccc(Cl)c2nc1-c1ccc(-c2cccc(S(C)(=O)=O)c2)cc1 [Example 35, 5,8-dichloro-2-methyl-3-[3′-(methylsulfonyl)biphenyl-4-yl]quinoxaline]
- IC50: 99.5 nM

SMILES: Cc1nc2cccc(C(F)(F)F)c2nc1-c1cc(Oc2ccccc2S(C)(=O)=O)ccc1Cl [Example 44, 3-{2-chloro-5-[2-(methylsulfonyl)phenoxy]phenyl}-2-methyl-5-(trifluoromethyl)quinoxaline]
- IC50: > 1000 nM

SMILES: CC(=O)Nc1cccc(-c2ccc(-c3nc4cccc(C(F)(F)F)c4nc3C)cc2)c1 [Example 51, N-{4′-[3-methyl-5-(trifluoromethyl)quinoxalin-2-yl]biphenyl-3-yl}acetamide]
- IC50: > 1000 nM

SMILES: Cc1nc2cccc(C(F)(F)F)c2nc1-c1ccc(Oc2cccc(S(C)(=O)=O)c2)cc1F [Example 29, 3-{2-fluoro-4-[3-(methylsulfonyl)phenoxy]phenyl}-2-methyl-5-(trifluoromethyl)quinoxaline]
- IC50: > 1000 nM

SMILES: Cc1nc2c(C(F)(F)F)cccc2nc1-c1ccc(-c2ccc(S(C)(=O)=O)cc2)cc1 [Example 18, 3-methyl-2-[4′-(methylsulfonyl)biphenyl-4-yl]-5-(trifluoromethyl)quinoxaline]
- IC50: > 1000 nM

SMILES: Cc1nc2c(C(F)(F)F)cccc2nc1-c1cccc(-c2ccc(S(C)(=O)=O)cc2)c1 [Example 20, 3-methyl-2-[4′-(methylsulfonyl)biphenyl-3-yl]-5-(trifluoromethyl)quinoxaline]
- IC50: > 1000 nM

SMILES: Cc1nc2c(C(F)(F)F)cccc2nc1-c1cc(Oc2ccc(S(=O)(=O)CC#N)cc2)ccc1Cl [Example 41, [(4-{4-chloro-3-[3-methyl-5-(trifluoromethyl)quinoxalin-2-yl]phenoxy}phenyl)sulfonyl]-acetonitrile]
- IC50: > 1000 nM

SMILES: Cc1nc2c(C(F)(F)F)cccc2nc1-c1ccc(-c2ccc(C(=O)N3CCCC3)cc2)cc1 [Example 54, 3-methyl-2-[4′-(pyrrolidin-1-ylcarbonyl)biphenyl-4-yl]-5-(trifluoromethyl)quinoxaline]
- IC50: > 1000 nM

SMILES: CS(=O)(=O)c1cccc(-c2ccc(-c3cnc4cccc(C(F)(F)F)c4n3)cc2)c1 [Example 25, 2-[3′-(methylsulfonyl)biphenyl-4-yl]-8-(trifluoromethyl)quinoxaline]
- IC50: > 1000 nM

SMILES: CNC(=O)c1cccc(-c2ccc(-c3nc4cccc(C(F)(F)F)c4nc3C)cc2)c1 [Example 52, N-methyl-4′-[3-methyl-5-(trifluoromethyl)quinoxalin-2-yl]biphenyl-3-carboxamide]
- IC50: > 1000 nM

SMILES: CNS(=O)(=O)c1cccc(-c2cccc(Oc3cnc4c(Cl)cccc4n3)c2)c1 [Example 84, 3′-[(5-Chloroquinoxalin-2-yl)oxy]-N-methylbiphenyl-3-sulfonamide]
- IC50: 640 nM

SMILES: CC(C)CS(=O)(=O)c1cccc(Oc2cccc(-c3cnc4cccc(C(F)(F)F)c4n3)c2)c1 [Example 17, 2-{3-[3-(isobutylsulfonyl)phenoxy]phenyl}-8-(trifluoromethyl)quinoxaline]
- IC50: > 1000 nM

SMILES: Cc1nc2c(C(F)(F)F)cccc2nc1-c1ccc(-c2cccc(NS(C)(=O)=O)c2)cc1 [Example 49, N-{4′-[3-methyl-5-(trifluoromethyl)quinoxalin-2-yl]biphenyl-3-yl}methanesulfonamide]
- IC50: > 1000 nM

SMILES: CNS(=O)(=O)c1cccc(-c2ccc(Oc3nc4cccc(Cl)c4nc3C)cc2)c1 [Example 91, 4′-[(5-chloro-3-methylquinoxalin-2-yl)oxy]-N-methylbiphenyl-3-sulfonamide]
- IC50: 933 nM

SMILES: Cc1nc2c(C(F)(F)F)cccc2nc1-c1ccc(-c2cccc(S(C)(=O)=O)c2)cc1F [Example 28, 2-[3-fluoro-3′-(methylsulfonyl)biphenyl-4-yl]-3-methyl-5-(trifluoromethyl)quinoxaline]
- IC50: > 1000 nM

SMILES: Cc1nc2c(Cl)cccc2nc1Oc1cccc(-c2cccc(S(N)(=O)=O)c2)c1 [Example 89, 3′-[(5-chloro-3-methylquinoxalin-2-yl)oxy]biphenyl-3-sulfonamide]
- IC50: > 1000 nM

SMILES: Cc1nc2c(C(F)(F)F)cccc2nc1-c1cccc(-c2cccc(S(C)(=O)=O)c2)c1 [Example 19, 3-methyl-2-[3′-(methylsulfonyl)biphenyl-3-yl]-5-(trifluoromethyl)quinoxaline]
- IC50: > 1000 nM

SMILES: CCS(=O)(=O)c1cccc(Oc2cccc(-c3cnc4cccc(C(F)(F)F)c4n3)c2)c1 [Example 16, 2-{3-[3-(ethylsulfonyl)phenoxy]phenyl}-8-(trifluoromethyl)quinoxaline]
- IC50: > 1000 nM

SMILES: COc1cccc2nc(C)c(-c3ccc(-c4cccc(S(C)(=O)=O)c4)cc3)nc12 [Example 69, 5-methoxy-2-methyl-3-[3′-(methylsulfonyl)biphenyl-4-yl]quinoxaline]
- IC50: > 1000 nM

SMILES: CNS(=O)(=O)c1cccc(-c2ccc(-c3nc4c(C(F)(F)F)cccc4nc3C)cc2)c1 [Example 48, N-methyl-4′-[3-methyl-8-(trifluoromethyl)quinoxalin-2-yl]biphenyl-3-sulfonamide]
- IC50: 1090 nM

SMILES: CS(=O)(=O)Nc1cccc(-c2cccc(Oc3cnc4c(Cl)cccc4n3)c2)c1 [Example 85, N-{3′-[(5-Chloroquinoxalin-2-yl)oxy]biphenyl-3-yl}methanesulfonamide]
- IC50: 257 nM

SMILES: Cc1nc2cccc(C(F)(F)F)c2nc1-c1cc(Oc2ccc(S(C)(=O)=O)cc2)ccc1Cl [Example 39, 3-{2-chloro-5-[4-(methylsulfonyl)phenoxy]phenyl}-2-methyl-5-(trifluoromethyl)quinoxaline]
- IC50: > 1000 nM
